# Columns and labels:
# [1] = Dissolution profile of tablets; assay type: physicochemical
# From the text: Assessment of the composition of the present invention formulated into tablets was made, as described in Example 1 to determine their dissolution profiles, according to methods widely known in the industry, in order to evaluate the release of drugs.
# [2] = Long-term stability test; assay type: physicochemical
# Experimental: The compositions of the present invention can be formulated into tablets which are packed in Aluminum-Aluminum blisters and subjected to stability studies according to ICH international guidelines (International Conference of Harmonization, Guideline for Industry, Stability Testing of New Drug Substances and Products. ICH Q1A (R2) February 2003).
# Long-term stability studies were conducted on a batch from the composition of the present invention manufactured in accordance with that described in Example 1 but with the addition of coloring agent; these studies were conducted in selected conditions of temperature and humidity, which were 30° C. and 75% RH, and a temperature of 25° C. and 60% RH, showing that the pharmaceutical composition is stable according to the results exemplified in Table 3 up to 9 months, although the study was conducted under the regulatory guidelines for a longer period.
# [3] = Determination of drugs content stability under extreme storage conditions; assay type: physicochemical
# Experimental: The compositions from Example 1 were subjected to extreme storage conditions.
# These conditions were maintained for a month, as follows: temperature 40° C. and 75% relative humidity (RH) and at temperature of 60° C. and 85% RH.
# Then, the determination of the contents of each of the drugs was performed.
# [4] = clinical; settings: human
# [5] = cited from earlier work
# [6] = patients with type 2 diabetes mellitus and proteinuria; cited from earlier work
# [7] = 0 months, 30° C./75% RH or 25° C./60% RH (not said which)
Average of % dissolved ([1]; 10 minutes) [%],Average of % dissolved ([1]; 20 minutes) [%],Average of % dissolved ([1]; 30 minutes) [%],Average of % dissolved ([1]; 40 minutes) [%],Average of % dissolved ([1]; 50 minutes) [%],Average of % dissolved ([1]; 60 minutes) [%],Dissolution ([2]; 0 months) [%],"Content [2, 7] [%]",Content ([2]; 1 month) [%],Dissolution ([2]; 1 month) [%],Content ([2]; 3 months) [%],Dissolution ([2]; 3 months) [%],Content ([2]; 6 months) [%],Dissolution ([2]; 6 months) [%],Content ([2]; 9 months) [%],Dissolution ([2]; 9 months) [%],Drug content ([3]; 1 Month 40° C./75% RH) [%],Drug content ([3]; 1 Month 60° C./85% RH) [%],Drug content ([3]; Initial) [%],concentration at 0 h ([4]; in vivo) [ng/mL],SMILES,other results
12,34,56,73,84,88,88.75,98.70,101.00,78.38,98.54,83.57,98.67,87.60,95.14,81.66,96.45,96.05,94.63,,"CC(=O)Oc1ccccc1C(=O)O [Acetylsalicylic acid, acetylsalicylic acid]",
61,104,105,106,107,108,99.79,98.89,98.04,94.77,95.83,98.09,98.77,95.97,99.97,93.37,98.72,98.23,99.76,0,"CC[C@H](C)C(=O)O[C@H]1C[C@H](O)C=C2C=C[C@H](C)[C@H](CC[C@@H](O)C[C@@H](O)CC(=O)O)[C@H]21 [Pravastatin sodium, pravastatin sodium]","concentration at 0.17 h ([4]; in vivo): 2.8 ng/mL; concentration at 0.33 h ([4]; in vivo): 24.9 ng/mL; concentration at 0.5 h ([4]; in vivo): 72.6 ng/mL; concentration at 0.75 h ([4]; in vivo): 113 ng/mL; concentration at 1 h ([4]; in vivo): 110 ng/mL; concentration at 2 h ([4]; in vivo): 77 ng/mL; concentration at 2.5 h ([4]; in vivo): 58 ng/mL; concentration at 3 h ([4]; in vivo): 42.5 ng/mL; concentration at 4 h ([4]; in vivo): 25.8 ng/mL; concentration at 6 h ([4]; in vivo): 16.2 ng/mL; concentration at 7 h ([4]; in vivo): 9.73 ng/mL; concentration at 8 h ([4]; in vivo): 13.3 ng/mL; concentration at 10 h ([4]; in vivo): 6.53 ng/mL; concentration at 12 h ([4]; in vivo): 1.71 ng/mL; concentration at 24 h ([4]; in vivo): 1.27 ng/mL; Incidence of type 2 diabetes mellitus, lower than in placebo group ([5]; patients administered pravastatin vs placebo): 30%; Reduction of incidence of cerebral thrombosis ([5]; patients): ≤ 20%"
,,,,,,,,,,,,,,,,,,,,O=C(O)c1ccccc1O [Salicylic acid],"concentration at 0 h ([4]; plasma, oral): 0 ng/mL; concentration at 0.17 h ([4]; plasma, oral): 1.09 ng/mL; concentration at 0.33 h ([4]; plasma, oral): 3.97 ng/mL; concentration at 0.5 h ([4]; plasma, oral): 8.78 ng/mL; concentration at 0.75 h ([4]; plasma, oral): 14.8 ng/mL; concentration at 1 h ([4]; plasma, oral): 21.1 ng/mL; concentration at 2 h ([4]; plasma, oral): 28.8 ng/mL; concentration at 2.5 h ([4]; plasma, oral): 36.5 ng/mL; concentration at 3 h ([4]; plasma, oral): 43.3 ng/mL; concentration at 4 h ([4]; plasma, oral): 49.2 ng/mL; concentration at 6 h ([4]; plasma, oral): 50.2 ng/mL; concentration at 7 h ([4]; plasma, oral): 45.4 ng/mL; concentration at 8 h ([4]; plasma, oral): 25.1 ng/mL; concentration at 10 h ([4]; plasma, oral): 12.5 ng/mL; concentration at 12 h ([4]; plasma, oral): 4.21 ng/mL; concentration at 24 h ([4]; plasma, oral): 1.16 ng/mL"
60,100,102,102,103,104,103.01,100.32,99.24,95.28,98.50,96.38,99.85,92.77,95.33,91.66,96.31,96.64,95.88,0,"CCCCc1nc(Cl)c(CO)n1Cc1ccc(-c2ccccc2-c2nn[nH]n2)cc1 [Losartan potassium, losartan potassium]",Progression of renal disease [6]: delays the progression of renal disease; concentration at 0.17 h ([4]; in vivo): 39.7 ng/mL; concentration at 0.33 h ([4]; in vivo): 137 ng/mL; concentration at 0.5 h ([4]; in vivo): 191 ng/mL; concentration at 0.75 h ([4]; in vivo): 176 ng/mL; concentration at 1 h ([4]; in vivo): 140 ng/mL; concentration at 2 h ([4]; in vivo): 113 ng/mL; concentration at 2.5 h ([4]; in vivo): 96.3 ng/mL; concentration at 3 h ([4]; in vivo): 81.5 ng/mL; concentration at 4 h ([4]; in vivo): 57.5 ng/mL; concentration at 6 h ([4]; in vivo): 38.7 ng/mL; concentration at 7 h ([4]; in vivo): 21.8 ng/mL; concentration at 8 h ([4]; in vivo): 12.4 ng/mL; concentration at 10 h ([4]; in vivo): 6.01 ng/mL; concentration at 12 h ([4]; in vivo): 3.06 ng/mL

# Reference: patent US20130345182A1, “STABLE COMPOSITION COMPRISING CHOLESTEROL-LOWERING AGENTS, […] AGENTS AND […] AGENTS” (Silanes Laboratories, priority 2010, published 2013)
